Legend:
[1] = Inhibition of porcine Pancreatic elastase with 10 min pre-incubation
[2] = Inhibition of porcine Pancreatic elastase without pre-incubation
[3] = as above; remark: listed apart in the source
[4] = as above; remark: listed apart in the source

Structure (SMILES)	IC50 [1] [nM]	IC50 [2] [nM]	IC50 [3] [nM]	IC50 [4] [µM]
Cc1ccc(S(=O)(=O)O[C@H]2C(=O)N3[C@@H](C(=O)OCOC(=O)C(C)(C)C)C(C)(C)S(=O)(=O)[C@H]23)cc1 [(2S,5R,6S)-3,3-Dimethyl-4,4,7-trioxo-6-(toluene-4-sulfonyloxy)-4lambda*6*-thia-1-aza-bicyclo[3.2.0]heptane-2-carboxylic acid 2,2-dimethyl-propionyloxymethyl ester]	490	2100		
Cc1ccc(S(=O)(=O)O[C@H]2C(=O)N3[C@@H](C(=O)OCc4ccccc4)C(C)(C)S(=O)(=O)[C@H]23)cc1 [(2S,5R,6S)-3,3-Dimethyl-4,4,7-trioxo-6-(toluene-4-sulfonyloxy)-4lambda*6*-thia-1-aza-bicyclo[3.2.0]heptane-2-carboxylic acid benzyl ester]			150	23
CC(C)(C)C(=O)OCOC(=O)[C@@H]1N2C(=O)[C@H](OS(=O)(=O)C(F)(F)F)[C@H]2S(=O)(=O)C1(C)C [(2S,5R,6S)-3,3-Dimethyl-4,4,7-trioxo-6-trifluoromethanesulfonyloxy-4lambda*6*-thia-1-aza-bicyclo[3.2.0]heptane-2-carboxylic acid 2,2-dimethyl-propionyloxymethyl ester]		1000		
CC1(C)[C@H](C(=O)OCc2ccccc2)N2C(=O)[C@H](OS(=O)(=O)C(F)(F)F)[C@H]2S1(=O)=O [(2S,5R,6S)-3,3-Dimethyl-4,4,7-trioxo-6-trifluoromethanesulfonyloxy-4lambda*6*-thia-1-aza-bicyclo[3.2.0]heptane-2-carboxylic acid benzyl ester]		680		
CC(C)(C)C(=O)OCOC(=O)[C@@H]1N2C(=O)[C@H](Cl)[C@H]2S(=O)(=O)C1(C)C [(2S,5R,6S)-6-Chloro-3,3-dimethyl-4,4,7-trioxo-4lambda*6*-thia-1-aza-bicyclo[3.2.0]heptane-2-carboxylic acid 2,2-dimethyl-propionyloxymethyl ester]			220000	280
CC(C)(C)C(=O)OCOC(=O)[C@@H]1N2C(=O)[C@H](OS(C)(=O)=O)[C@H]2S(=O)(=O)C1(C)C [(2S,5R,6S)-6-Methanesulfonyloxy-3,3-dimethyl-4,4,7-trioxo-4lambda*6*-thia-1-aza-bicyclo[3.2.0]heptane-2-carboxylic acid 2,2-dimethyl-propionyloxymethyl ester]	540	4300		
CC1(C)[C@H](C(=O)OCc2ccccc2)N2C(=O)[C@H](OS(C)(=O)=O)[C@H]2S1(=O)=O [(2S,5R,6S)-6-Methanesulfonyloxy-3,3-dimethyl-4,4,7-trioxo-4lambda*6*-thia-1-aza-bicyclo[3.2.0]heptane-2-carboxylic acid benzyl ester]			130	2.2

Reference: BindingDB's records for doi:10.1016/0960-894X(95)00347-V (1995)
